Data as given in US20240425523A1, “Compounds for the Degradation of EGFR Kinase” (Beigene Switzerland GMBH, priority 2023, published 2024).

Columns and labels:
[1] = molecular target: T1, EGFR L858R (BaF3-L858R cells) (Homo sapiens, UniProt P00533, L858R); experiment: Cell degradation of EGFR, HTRF assay, BaF3-L858R cells; assay type: cell-based; settings: 16 h treatment; for DC50: EGFR degradation; for Dmax: maximum percentage of degradation
T1 construct: host or cells: BaF3
Method: BaF3-L858R (abbv. L858R) cell were purchased from Kangyuan Bochuang Biotechnology (Beijing) Co., Ltd.
(§1) H1975-#8 and BaF3-L858R cells are treated with compounds diluted in 0.1% DMSO cell culture medium on day 2, incubate for 16 h, 37° C., 5% CO2. the final concentration of compounds in all assay is start with 10 uM, 5-fold dilution, total 8 doses were included.
(§2) After 16 h treatment, for H1975-#8 cells, add 100 ul HTRF 1× lysis buffer to each well; for BaF3-L858R cells, add 20 μl 4× lysis buffer to each well; seal the plate and incubate 1 hour at room temperature on a plate shaker; Once the cells are lysed, 16 μL of cell lysate are transferred to a PE 384-well HTRF detection plate; 4 μL of pre-mixed HTRF antibodies are added to each well; Cover the plate with a plate sealer, spin 1000 rpm for 1 min, Incubate overnight at room temperature; Read on BMG PheraStar with HTRF protocol (337 nm-665 nm-620 nm).
(§3) High control=Cell group with added DMSO and without compound, indicating microplate readings without EGFR degradation;
(§4) Dmax is the maximum percentage of inhibition (degradation).
(§5) The IC50 (DC50) value of a compound can be obtained by fitting the following equation
(§6) Y=Bottom+(TOP−Bottom)/(1+((IC50/X)^hillslope))
(§7) Wherein, X and Y are known values, and IC50, Hillslope, Top and Bottom are the parameters obtained by fitting with software. […] The experimental data were fitted by calculating and analyzing with Dotmatics data analysis software.

[2] = molecular target: T2, EGFR-L858R/C797S (H1975-clone #8 cells) (Homo sapiens, UniProt P00533, C797S/L858R); experiment: Cell degradation of EGFR, HTRF assay, H1975-clone#8 (L858R/C797S) cells; assay type: cell-based; settings: 16 h treatment; for DC50: EGFR degradation; for Dmax: maximum percentage of degradation
T2 construct: expressed in transfected cells; host or cells: H1975 (endogenous EGFR knocked out, clone #8)
Method: The EGFR over-expressed cells then underwent knockout, in which the EGFR targeting sgRNA was designed to only target the endogenous EGFR copies and preserve the exogenous EGFR copies. Followed by the knockout, the edited H1975 cells were seeded in 96 well plates at the concentration of […], cultured for about 2 weeks to allow single clones formation. The formed clones were screened by DNA sequencing and whole exon sequencing analysis for the desired edition.
as §1, §2, §3, §4, §5, §6, §7

T2 sequence (P00533 25-1210 C797S/L858R): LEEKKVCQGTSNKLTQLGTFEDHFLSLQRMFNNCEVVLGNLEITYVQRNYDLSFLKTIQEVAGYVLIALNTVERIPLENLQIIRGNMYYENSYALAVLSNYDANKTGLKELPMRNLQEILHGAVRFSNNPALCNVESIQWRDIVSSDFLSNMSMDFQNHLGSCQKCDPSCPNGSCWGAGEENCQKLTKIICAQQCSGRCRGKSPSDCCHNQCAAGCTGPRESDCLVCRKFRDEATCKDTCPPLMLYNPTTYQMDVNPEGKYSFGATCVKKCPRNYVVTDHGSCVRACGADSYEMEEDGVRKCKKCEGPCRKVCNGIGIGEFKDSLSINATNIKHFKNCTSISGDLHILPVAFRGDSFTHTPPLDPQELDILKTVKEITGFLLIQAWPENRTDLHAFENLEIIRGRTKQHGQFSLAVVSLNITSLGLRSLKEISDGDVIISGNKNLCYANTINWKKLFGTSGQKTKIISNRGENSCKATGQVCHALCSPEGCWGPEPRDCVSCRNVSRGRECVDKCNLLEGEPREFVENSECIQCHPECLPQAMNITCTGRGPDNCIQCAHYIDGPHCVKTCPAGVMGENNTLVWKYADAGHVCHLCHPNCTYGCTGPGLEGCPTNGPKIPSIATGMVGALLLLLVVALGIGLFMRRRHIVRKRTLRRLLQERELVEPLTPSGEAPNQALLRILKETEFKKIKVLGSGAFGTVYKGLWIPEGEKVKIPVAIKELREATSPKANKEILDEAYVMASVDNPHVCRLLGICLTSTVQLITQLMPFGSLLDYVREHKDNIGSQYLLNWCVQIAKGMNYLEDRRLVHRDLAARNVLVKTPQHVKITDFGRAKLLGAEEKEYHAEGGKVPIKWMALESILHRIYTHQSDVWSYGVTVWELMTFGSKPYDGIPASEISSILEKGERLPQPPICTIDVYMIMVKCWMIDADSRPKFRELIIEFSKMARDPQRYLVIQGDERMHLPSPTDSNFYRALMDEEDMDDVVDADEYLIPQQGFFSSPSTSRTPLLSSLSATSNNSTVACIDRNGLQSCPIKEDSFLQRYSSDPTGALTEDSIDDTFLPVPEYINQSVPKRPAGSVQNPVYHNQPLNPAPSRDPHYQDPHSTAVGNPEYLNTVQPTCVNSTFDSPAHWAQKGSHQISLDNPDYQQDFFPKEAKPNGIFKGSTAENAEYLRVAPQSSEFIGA
T1 sequence (P00533 25-1210 L858R): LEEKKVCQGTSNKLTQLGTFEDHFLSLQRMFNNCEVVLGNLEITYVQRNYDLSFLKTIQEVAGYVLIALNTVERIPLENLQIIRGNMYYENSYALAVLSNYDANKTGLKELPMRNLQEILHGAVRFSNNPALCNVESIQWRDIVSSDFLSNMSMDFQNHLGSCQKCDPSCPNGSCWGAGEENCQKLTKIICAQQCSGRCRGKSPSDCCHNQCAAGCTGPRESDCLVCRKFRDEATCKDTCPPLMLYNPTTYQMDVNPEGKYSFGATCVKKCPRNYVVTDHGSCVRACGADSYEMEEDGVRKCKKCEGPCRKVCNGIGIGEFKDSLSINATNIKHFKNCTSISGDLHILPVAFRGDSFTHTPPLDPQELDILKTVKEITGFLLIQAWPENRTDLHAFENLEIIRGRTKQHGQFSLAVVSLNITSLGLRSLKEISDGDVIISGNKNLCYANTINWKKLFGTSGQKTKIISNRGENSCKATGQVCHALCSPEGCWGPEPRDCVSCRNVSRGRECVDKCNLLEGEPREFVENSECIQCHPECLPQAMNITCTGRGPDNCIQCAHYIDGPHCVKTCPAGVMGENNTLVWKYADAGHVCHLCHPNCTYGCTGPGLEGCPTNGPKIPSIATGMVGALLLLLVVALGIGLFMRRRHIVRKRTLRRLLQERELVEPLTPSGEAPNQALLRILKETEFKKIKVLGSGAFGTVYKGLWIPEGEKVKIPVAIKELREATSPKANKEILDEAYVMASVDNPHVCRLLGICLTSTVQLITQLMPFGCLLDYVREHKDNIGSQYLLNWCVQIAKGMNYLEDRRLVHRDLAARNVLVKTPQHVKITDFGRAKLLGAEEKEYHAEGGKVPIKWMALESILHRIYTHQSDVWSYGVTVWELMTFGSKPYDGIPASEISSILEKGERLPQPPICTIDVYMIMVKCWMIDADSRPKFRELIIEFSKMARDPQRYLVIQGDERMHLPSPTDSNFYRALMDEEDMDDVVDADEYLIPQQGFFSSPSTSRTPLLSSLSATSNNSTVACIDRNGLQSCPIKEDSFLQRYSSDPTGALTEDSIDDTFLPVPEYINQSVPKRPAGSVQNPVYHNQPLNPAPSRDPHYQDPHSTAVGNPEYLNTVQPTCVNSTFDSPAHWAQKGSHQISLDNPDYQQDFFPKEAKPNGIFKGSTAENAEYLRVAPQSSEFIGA

SMILES	DC50 [1]	Dmax [1]	DC50 [2]	Dmax [2]
Cc1cc2cc(n1)-c1cnn(C)c1OC[C@H]1CC[C@H](C1)CN1/C(=N/C2=O)Nc2ccc(N3CCN(CC4CN(c5c(C)cc(C6CCC(=O)NC6=O)nc5C)C4)CC3)cc21 (some centres unmarked) [Example 8, 3-(5-(3-((4-((7^1R,7^3S,E)-1^1,2^6-dimethyl-3-oxo-5^2,5^3-dihydro-1^1H,5^1H-9-oxa-4-aza-5(2,1)-benzo[d]imidazola-2(2,4)-pyridina-1(4,5)-pyrazola-7(1,3)-cyclopentanacyclononaphane-5^6-yl)piperazin-1-yl)methyl)azetidin-1-yl)-4,6-dimethylpyridin-2-yl)piperidine-2,6-dione]	3.2 nM	64%	3.18 nM	74.2%
Cc1cc2cc(n1)-c1cnn(C)c1OC[C@H]1CC[C@H](C1)CN1/C(=N/C2=O)Nc2ccc(N3CCN(C4CCN(c5cc(F)c([C@H]6CCC(=O)NC6=O)c(F)c5)CC4)CC3)cc21 [Example 1, (R)-3-(4-(4-(4-((7^1R,7^3S,E)-1^1,2^6-dimethyl-3-oxo-5^2,5^3-dihydro-1^1H,5^1H-9-oxa-4-aza-5(2,1)-benzo[d]imidazola-2(2,4)-pyridina-1(4,5)-pyrazola-7(1,3)-cyclopentanacyclononaphane-5^6-yl)piperazin-1-yl)piperidin-1-yl)-2,6-difluorophenyl)piperidine-2,6-dione]	3.25 nM	89.7%	1.41 nM	79.2%
Cc1cc2cc(n1)-c1cnn(C)c1OC[C@H]1CC[C@H](C1)CN1/C(=N/C2=O)Nc2ccc(N3CCN(C4CCN(c5cc(F)c(C6CCC(=O)NC6=O)nc5C)CC4)CC3)cc21 (some centres unmarked) [Example 6, 3-(5-(4-(4-((7^1R,7^3S,E)-1^1,2^6-dimethyl-3-oxo-5^2,5^3-dihydro-1^1H,5^1H-9-oxa-4-aza-5(2,1)-benzo[d]imidazola-2(2,4)-pyridina-1(4,5)-pyrazola-7(1,3)-cyclopentanacyclononaphane-5^6-yl)piperazin-1-yl)piperidin-1-yl)-3-fluoro-6-methylpyridin-2-yl)piperidine-2,6-dione]	3.1 nM	101%	1.2 nM	86.6%

Continued by falling DC50 [1], values first:

DC50 [1]	Dmax [1]	DC50 [2]	Dmax [2]	SMILES
12.8 nM	86%	0.608 nM	55%	Cc1cc2cc(n1)-c1cnn(C)c1OC[C@H]1CC[C@H](C1)CN1/C(=N/C2=O)Nc2ccc(N3CCN(CC4CCN(c5ccc(C6CCC(=O)NC6=O)nc5C)CC4)CC3)cc21 (some centres unmarked) [Example 23, 3-(5-(4-((4-((7^1R,7^3S,E)-1^1,2^6-dimethyl-3-oxo-5^2,5^3-dihydro-1^1H,5^1H-9-oxa-4-aza-5(2,1)-benzo[d]imidazola-2(2,4)-pyridina-1(4,5)-pyrazola-7(1,3)-cyclopentanacyclononaphane-5^6-yl)piperazin-1-yl)methyl)piperidin-1-yl)-6-methylpyridin-2-yl)piperidine-2,6-dione]
0.631 nM	99.4%	2.03 nM	45.4%	Cc1cc2cc(n1)-c1cnn(C)c1OC[C@H]1CC[C@H](C1)CN1/C(=N/C2=O)Nc2ccc(N3CCN(CCc4c(C)cc(C5CCC(=O)NC5=O)nc4C)CC3)cc21 (some centres unmarked) [Example 7, 3-(5-(2-(4-((7^1R,7^3S,E)-1^1,2^6-dimethyl-3-oxo-5^2,5^3-dihydro-1^1H,5^1H-9-oxa-4-aza-5(2,1)-benzo[d]imidazola-2(2,4)-pyridina-1(4,5)-pyrazola-7(1,3)-cyclopentanacyclononaphane-5^6-yl)piperazin-1-yl)ethyl)-4,6-dimethylpyridin-2-yl)piperidine-2,6-dione]
